Ki and Ratio data for 18 compounds are collected here from ChEMBL document CHEMBL1145802, “Dual probes for the dopamine transporter and sigma1 receptors: novel piperazinyl alkyl-bis(4'-fluorophenyl)amine analogues as potential cocaine-abuse therapeutic agents” (J Med Chem, 2003).

Bounds are passed on as bounds.

The target in test [1] is Sodium-dependent dopamine transporter (Rattus norvegicus, UniProt P23977). Put plainly: Binding affinity against dopamine transporter was determined by the displacement of [3H]WIN-35428 radioligand in rat brain. It counts as tissue-based. Background: In a radioligand displacement assay an active substance lowers the binding of a labelled ligand.
The species named for the next test is Cavia porcellus. Put plainly: Ratio of binding affinities for dopamine transporter over sigma-1 receptor.
A further test has as its target Sigma 2 receptor. Put plainly: Binding affinity against Sigma receptor type 2 was determined by the displacement of [3H]DTG/dextrallorphan radioligand. The arrangement: species or system Rattus norvegicus.
Test [2] concerns the target Monoamine transporters; serotonin & dopamine (Rattus norvegicus) (UniProt P31652+P23977). Briefly: Ratio for the binding affinities of dopamine transporter over serotonin transporter. Format: protein assay.
The target in test [3] is Monoamine transporters; Norepininephrine & dopamine (Rattus norvegicus) (UniProt P23977+Q9WTR4). Put plainly: Ratio of binding affinities for dopamine and norepinephrine transporters. Format: protein assay.
The target in test [4] is Sodium-dependent serotonin transporter (Rattus norvegicus, UniProt P31652). Put plainly: Binding affinity against serotonin transporter by displacement of [3H]citalopram in rat brain. Format: tissue-based.
Test [5] addresses Norepinephrine transporter (Rattus norvegicus, UniProt Q9WTR4). Put plainly: Displacement of [3H]nisoxetine from rat brain norepinephrine transporter. It counts as tissue-based.

For orientation: Ki means the dissociation constant of the complex between target and ligand, obtained from inhibition or displacement. A lower Ki goes with tighter binding.

Chain of Sodium-dependent serotonin transporter (P31652 whole entry): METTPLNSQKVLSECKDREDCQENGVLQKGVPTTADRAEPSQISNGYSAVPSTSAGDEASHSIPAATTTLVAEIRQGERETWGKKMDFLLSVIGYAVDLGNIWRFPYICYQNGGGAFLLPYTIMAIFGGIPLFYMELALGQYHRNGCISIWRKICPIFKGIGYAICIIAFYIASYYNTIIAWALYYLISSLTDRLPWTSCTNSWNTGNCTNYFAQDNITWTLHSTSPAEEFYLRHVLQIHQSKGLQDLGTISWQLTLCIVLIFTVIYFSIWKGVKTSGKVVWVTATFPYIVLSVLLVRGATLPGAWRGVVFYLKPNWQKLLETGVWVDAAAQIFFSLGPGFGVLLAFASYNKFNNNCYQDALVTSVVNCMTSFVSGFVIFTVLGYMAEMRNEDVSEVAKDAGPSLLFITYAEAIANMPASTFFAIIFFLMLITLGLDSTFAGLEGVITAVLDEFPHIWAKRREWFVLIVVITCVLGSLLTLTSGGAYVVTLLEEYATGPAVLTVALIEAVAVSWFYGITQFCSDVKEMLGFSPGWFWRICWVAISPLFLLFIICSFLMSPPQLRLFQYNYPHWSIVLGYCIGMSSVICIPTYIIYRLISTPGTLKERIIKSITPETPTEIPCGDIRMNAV
Chain of Norepinephrine transporter (Q9WTR4 whole entry): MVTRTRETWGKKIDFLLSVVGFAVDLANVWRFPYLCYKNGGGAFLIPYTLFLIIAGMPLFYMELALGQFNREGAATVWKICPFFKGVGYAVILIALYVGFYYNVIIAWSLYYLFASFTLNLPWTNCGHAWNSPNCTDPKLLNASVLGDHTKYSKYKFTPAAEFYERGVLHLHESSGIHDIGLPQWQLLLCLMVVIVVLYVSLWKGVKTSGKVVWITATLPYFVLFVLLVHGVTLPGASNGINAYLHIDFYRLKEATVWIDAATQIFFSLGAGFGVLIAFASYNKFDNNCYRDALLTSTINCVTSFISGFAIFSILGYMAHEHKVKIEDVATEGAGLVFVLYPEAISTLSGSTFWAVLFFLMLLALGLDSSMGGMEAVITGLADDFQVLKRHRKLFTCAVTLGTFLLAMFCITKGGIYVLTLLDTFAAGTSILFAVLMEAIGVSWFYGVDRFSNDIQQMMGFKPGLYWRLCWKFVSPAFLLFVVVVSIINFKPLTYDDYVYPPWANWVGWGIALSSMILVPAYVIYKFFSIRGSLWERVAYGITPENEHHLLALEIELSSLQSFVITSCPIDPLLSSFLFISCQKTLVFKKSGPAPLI
Chain of Sodium-dependent dopamine transporter (P23977 whole entry): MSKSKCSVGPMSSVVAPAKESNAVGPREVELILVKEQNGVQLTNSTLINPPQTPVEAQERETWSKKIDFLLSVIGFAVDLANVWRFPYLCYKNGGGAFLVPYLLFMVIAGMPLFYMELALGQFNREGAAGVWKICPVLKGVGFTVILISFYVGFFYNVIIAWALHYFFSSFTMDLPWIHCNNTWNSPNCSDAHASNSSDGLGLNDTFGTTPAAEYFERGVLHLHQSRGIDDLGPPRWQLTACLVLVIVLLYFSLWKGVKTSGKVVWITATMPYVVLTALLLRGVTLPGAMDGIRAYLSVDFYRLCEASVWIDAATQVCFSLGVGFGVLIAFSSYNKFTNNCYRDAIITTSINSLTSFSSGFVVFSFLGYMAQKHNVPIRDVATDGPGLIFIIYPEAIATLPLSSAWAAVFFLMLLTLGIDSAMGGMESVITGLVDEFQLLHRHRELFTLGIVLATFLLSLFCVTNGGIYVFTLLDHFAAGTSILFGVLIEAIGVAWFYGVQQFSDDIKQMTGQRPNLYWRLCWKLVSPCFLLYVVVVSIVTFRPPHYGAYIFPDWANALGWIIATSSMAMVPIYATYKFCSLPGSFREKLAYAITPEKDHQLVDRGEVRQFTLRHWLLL
Chain of Monoamine transporters; serotonin & dopamine (Rattus norvegicus) (P23977 whole entry, looked up): as the sequence (P23977 whole entry) above
Chain of Monoamine transporters; serotonin & dopamine (Rattus norvegicus) (P31652 whole entry, looked up): as the sequence (P31652 whole entry) above

Take `CCCN1CCC[C@@H](c2cccc(O)c2)C1` [PRECLAMOL]: the Ki in test [1] was found to be 3270 nM.

For `CCN(CC)CCOC(=O)C1(c2ccccc2)CCCC1`, in test [1], affinity was put at a Ki of 5180 nM.

Take `C[C@@H]1CN(CCCn2c3ccccc3c3cc(N)ccc32)C[C@@H](C)N1`: the Ratio in the test filed under Cavia porcellus amounted to 2.4. The Ki in test [1] worked out at 2400 nM.

Regarding `C[C@@H]1CN(CCCN(c2ccc(F)cc2)c2ccc(F)cc2)C[C@@H](C)N1CCCc1ccccc1`, the Ki at Sigma 2 receptor turned out to be 18.6 nM; in test [1], 22.8 nM. The values for the Ratio (in the test filed under Cavia porcellus; in test [2]; in test [3]) were 0.5, 94 and 45, respectively.

With `C[C@@H]1CN(CCCN(c2ccc(F)cc2)c2ccc(F)cc2)C[C@@H](C)N1`, the results for the Ratio (in the test filed under Cavia porcellus; in test [2]; in test [3]) were 1.6, 170 and 219, respectively. The Ki in test [1] stood at 77.1 nM.

`C[C@@H]1CN(CCCn2c3ccccc3c3cc([N+](=O)[O-])ccc32)C[C@@H](C)N1`: the Ratio in the test listed under Cavia porcellus amounted to 5.5. The compound also displayed a Ki in test [1] of 109 nM.

Regarding `Fc1ccc(N(CCCN2CCN(Cc3ccccc3)CC2)c2ccc(F)cc2)cc1`, the Ki was 78.1 nM on Sigma 2 receptor, 3730 nM in test [4], 27.6 nM in test [1] and 5210 nM in test [5]. Besides, the Ratio in the test filed under Cavia porcellus came out at 0.5; in test [2], 140; in test [3] it was 190.

As to `C[C@@H]1CN(CCCn2c3ccc([N+](=O)[O-])cc3c3cc([N+](=O)[O-])ccc32)C[C@@H](C)N1`, in test [1], the affinity, expressed as Ki, was 174000 nM.

In the case of `C[C@@H]1CN(CCCn2c3ccccc3c3ccccc32)C[C@@H](C)N1C`, the Ratio in the test filed under Cavia porcellus came out at 1.3. Also, affinity in test [1] was put at a Ki of 436 nM.

Take `C[C@@H]1CN(CCCn2c3ccc(Br)cc3c3cc(Br)ccc32)C[C@@H](C)N1`: the Ratio in the test filed under Cavia porcellus was 1.1. Besides, the Ki in test [1] came out at 3890 nM.

As for `C[C@@H]1CN(CCCN(c2ccccc2)c2ccccc2)C[C@@H](C)N1CCc1ccc(Cl)c(Cl)c1`, the Ki on Sigma 2 receptor worked out at 216 nM; in test [1] it was 272 nM. In addition, the Ratio is 0.1 in the test filed under Cavia porcellus, 18 in test [2] and > 110 in test [3].

Turning to `Fc1ccc(N(CCCN2CCNCC2)c2ccc(F)cc2)cc1`, the Ki on Sigma 2 receptor was determined as 385 nM; in test [4], 133 nM; in test [1] it was 60.8 nM; in test [5] it was 396 nM. For the same compound, the Ratio in the test filed under Cavia porcellus was 23; in test [2] it was 2; in test [3], 7.

Consider `Fc1ccc(N(CCCN2CCN(CCCc3ccccc3)CC2)c2ccc(F)cc2)cc1`, for which the Ratio in the test listed under Cavia porcellus was 3.7; in test [2] it was 67; in test [3], 38. Further, the Ki in test [4] was 1210 nM; in test [1], 18.1 nM; in test [5], 682 nM.

On to `C[C@@H]1CN(CCCN(c2ccc(F)cc2)c2ccc(F)cc2)C[C@@H](C)N1CCc1ccc(Cl)c(Cl)c1`, for which the Ki in test [4] came to 4350 nM; in test [1] it was 180 nM.

Turning to `C[C@@H]1CN(CCCN(c2ccccc2)c2ccccc2)C[C@@H](C)N1CCCc1ccccc1`, the figures for the Ratio (in the test filed under Cavia porcellus; in test [2]; in test [3]) were 1.6, 20 and 60, respectively.

For the compound `C[C@@H]1CN(CCCn2c3ccccc3c3ccccc32)C[C@@H](C)N1CCCc1ccccc1`, the Ratio in the test listed under Cavia porcellus came out at 0.4. Further, the affinity in test [1], expressed as Ki, was 263 nM.

With `C[C@@H]1CN(CCCN(c2ccccc2)c2ccccc2)C[C@@H](C)N1`, the Ratio in the test listed under Cavia porcellus came out at 0.2; in test [2], 87; in test [3] it was 8.

As for `OC(CCN1CCN(CCCN(c2ccc(F)cc2)c2ccc(F)cc2)CC1)c1ccccc1` (configuration not stated), the values for the Ki in test [4] and in test [1] were 803 nM and 8.5 nM, respectively.
